US20250197394A1, “ANTIBACTERIALS BASED ON MONOCYCLIC FRAGMENTS COUPLED TO AMINOPIPERIDINE NAPHTHYRIDINE SCAFFOLD” (UNIVERZA V LJUBLJANI, priority 2019, published 2025)
Values after ≈ are worked out from the molar mass of the structure shown.

Tests used:
HUVEC (ATCC) cell line = assay: Cytotoxicity, metabolic cell activity (CellTiter 96 AQueous One), HUVEC; assay type: cell-based; conditions: two independent experiments; for mean percentage of metabolic activity of treated cells, HUVEC 1 μM: compound 1 μM; for mean percentage of metabolic activity of treated cells, HUVEC 50 μM: compound 50 μM
Experimental: (§1) Cytotoxicity was assessed in assay measuring metabolic cell activity performed on HepG2 (ATCC) and HUVEC (ATCC) cell lines according to the protocol of CellTiter 96® AQueous One Solution Cell Proliferation Assay 2018, Promega, USA, 2001. The method involved absorbance measurements after the treatment of cells with compounds at concentrations 1 μM and 50 μM.
(§2) The results are given as the mean percentage of metabolic activity of treated cells from two independent experiments and are represented in Table 3.

[1] = target: Staphylococcus aureus DNA gyrase (Staphylococcus aureus, UniProt P0A0K8+P20831); assay: biochemical
Staphylococcus aureus DNA gyrase, sequence (P20831 whole entry): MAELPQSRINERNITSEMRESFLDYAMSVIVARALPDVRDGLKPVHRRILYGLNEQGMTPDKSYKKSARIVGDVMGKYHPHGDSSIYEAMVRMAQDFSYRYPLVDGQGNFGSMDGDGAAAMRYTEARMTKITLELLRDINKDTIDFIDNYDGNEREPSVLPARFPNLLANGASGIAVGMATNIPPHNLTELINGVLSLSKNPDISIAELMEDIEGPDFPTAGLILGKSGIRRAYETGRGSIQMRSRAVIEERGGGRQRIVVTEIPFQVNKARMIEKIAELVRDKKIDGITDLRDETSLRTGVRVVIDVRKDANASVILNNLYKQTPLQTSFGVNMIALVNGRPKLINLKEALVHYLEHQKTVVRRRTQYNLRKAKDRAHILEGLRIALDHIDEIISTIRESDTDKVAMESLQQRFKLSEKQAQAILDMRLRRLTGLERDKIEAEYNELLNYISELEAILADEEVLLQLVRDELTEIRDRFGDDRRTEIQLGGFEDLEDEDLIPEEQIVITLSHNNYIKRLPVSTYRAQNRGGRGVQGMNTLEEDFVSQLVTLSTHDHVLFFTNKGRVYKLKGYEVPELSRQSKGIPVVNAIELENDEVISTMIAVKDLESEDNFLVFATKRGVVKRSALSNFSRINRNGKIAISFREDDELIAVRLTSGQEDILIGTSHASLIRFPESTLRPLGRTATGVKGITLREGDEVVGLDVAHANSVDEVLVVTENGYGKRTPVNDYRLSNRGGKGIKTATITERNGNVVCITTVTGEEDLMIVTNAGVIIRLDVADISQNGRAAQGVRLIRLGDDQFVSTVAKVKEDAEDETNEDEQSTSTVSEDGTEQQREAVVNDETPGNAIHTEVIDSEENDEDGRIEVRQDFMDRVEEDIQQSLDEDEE
Staphylococcus aureus DNA gyrase, sequence (P0A0K8 whole entry): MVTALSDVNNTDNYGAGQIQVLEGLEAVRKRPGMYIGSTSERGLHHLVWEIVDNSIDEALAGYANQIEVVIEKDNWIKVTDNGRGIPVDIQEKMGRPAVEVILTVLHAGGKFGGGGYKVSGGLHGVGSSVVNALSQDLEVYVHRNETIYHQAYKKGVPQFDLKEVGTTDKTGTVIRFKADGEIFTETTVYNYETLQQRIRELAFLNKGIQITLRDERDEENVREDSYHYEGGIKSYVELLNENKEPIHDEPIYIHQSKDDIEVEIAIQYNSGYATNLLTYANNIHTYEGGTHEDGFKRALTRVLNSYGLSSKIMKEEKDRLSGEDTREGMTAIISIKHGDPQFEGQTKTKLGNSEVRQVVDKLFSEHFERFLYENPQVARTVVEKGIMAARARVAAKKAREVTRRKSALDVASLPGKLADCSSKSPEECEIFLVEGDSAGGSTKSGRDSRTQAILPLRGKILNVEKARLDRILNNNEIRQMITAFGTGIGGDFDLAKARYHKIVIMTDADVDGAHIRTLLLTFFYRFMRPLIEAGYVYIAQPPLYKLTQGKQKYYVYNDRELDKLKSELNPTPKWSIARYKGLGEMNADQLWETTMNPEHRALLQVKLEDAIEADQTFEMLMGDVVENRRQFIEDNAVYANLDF

[2] = test system: methicillin-resistant Staphylococcus pseudintermedius S-84; assay: MIC broth microdilution, MRSP S-84; assay type: cell-based; conditions: 20 hours of incubation
Experimental: (§3) Minimal inhibitory concentrations were determined by the broth microdilution method in 96-wells plate format following the Clinical and Laboratory Standards Institute (CLSI) guidelines given in “Methods for Dilution Antimicrobial Susceptibility Tests for Bacteria That Grow Aerobically, Approved Standard, 10th Edition, CLSI document M07-A10, Wayne, PA: Clinical and Laboratory Standards Institute, USA, 2015” and European Committee on Antimicrobial Susceptibility Testing (EUCAST) recommendations given in “The European Committee on Antimicrobial Susceptibility Testing, Breakpoint tables for interpretation of MICs and zone diameters, Version 5.0, 2015”. All exemplified compounds were tested on several Gram-positive (S. aureus, methicillin-resistant Staphylococcus aureus (MRSA), methicillin-resistant
(§4) Staphylococcus schleiferi subspecies coagulans, methicillin-resistant Staphylococcus pseudintermedius
(§5) (S-48, S-84, S-35, S-52, S-40 and S-51), Streptococcus agalactiae and Enterococcus faecalis) and Gram-negative bacteria (E. coli, Salmonella Alachua and Pseudomonas aeruginosa).
(§6) The MICs were visually determined as the lowest compound concentration inhibiting bacterial growth after 20 hours of incubation time. […] MIC values are represented in Table 2.

[3] = test system: methicillin-resistant Staphylococcus pseudintermedius S-35; assay: MIC broth microdilution, MRSP S-35; assay type: cell-based; conditions: 20 hours of incubation
Experimental: as §3, §4, §5, §6

HepG2 (ATCC) cell line = assay: Cytotoxicity, metabolic cell activity (CellTiter 96 AQueous One), HepG2; assay type: cell-based; conditions: two independent experiments; for mean percentage of metabolic activity of treated cells, HepG2 1 μM: HepG2, compound 1 μM; for mean percentage of metabolic activity of treated cells, HepG2 50 μM: HepG2, compound 50 μM
Experimental: as §1, §2

P. aeruginosa RDK 184 = assay: MIC broth microdilution, P. aeruginosa; assay type: cell-based; conditions: Pseudomonas aeruginosa, RDK184, 20 hours of incubation
Experimental: as §3, §4, §5, §6

[4] = test system: methicillin-resistant Staphylococcus schleiferi subspecies coagulans; assay: MIC broth microdilution, MRSS; assay type: cell-based; conditions: 20 hours of incubation
Experimental: as §3, §4, §5, §6

C. jejuni RDK-135 = assay: MIC broth microdilution, C. jejuni; assay type: cell-based; conditions: Campylobacter jejuni, RDK135, 20 hours of incubation
Experimental: as §3, §6

[5] = test system: methicillin-resistant Staphylococcus pseudintermedius S-51; assay: MIC broth microdilution, MRSP S-51; assay type: cell-based; conditions: 20 hours of incubation
Experimental: as §3, §4, §5, §6

[6] = test system: methicillin-resistant Staphylococcus pseudintermedius S-52; assay: MIC broth microdilution, MRSP S-52; assay type: cell-based; conditions: 20 hours of incubation
Experimental: as §3, §4, §5, §6

[7] = test system: methicillin-resistant Staphylococcus pseudintermedius S-48; assay: MIC broth microdilution, MRSP S-48; assay type: cell-based; conditions: 20 hours of incubation
Experimental: as §3, §4, §5, §6

[8] = test system: methicillin-resistant Staphylococcus pseudintermedius S-40; assay: MIC broth microdilution, MRSP S-40; assay type: cell-based; conditions: 20 hours of incubation
Experimental: as §3, §4, §5, §6

E. faecalis DRK 057 = assay: MIC broth microdilution, E. faecalis; assay type: cell-based; conditions: Enterococcus faecalis, DRK057, 20 hours of incubation
Experimental: as §3, §4, §5, §6

[9] = target: T1, Escherichia coli DNA gyrase (Escherichia coli, UniProt P0AES4+P0AES6); assay: Gyrase Supercoiling High Throughput Plate assay (E. coli); assay type: biochemical; conditions: mean of two to four independent measurements
T1 construct: purchased Inspiralis (Norwich, UK)
T1 sequence (P0AES4 whole entry, one chain of several): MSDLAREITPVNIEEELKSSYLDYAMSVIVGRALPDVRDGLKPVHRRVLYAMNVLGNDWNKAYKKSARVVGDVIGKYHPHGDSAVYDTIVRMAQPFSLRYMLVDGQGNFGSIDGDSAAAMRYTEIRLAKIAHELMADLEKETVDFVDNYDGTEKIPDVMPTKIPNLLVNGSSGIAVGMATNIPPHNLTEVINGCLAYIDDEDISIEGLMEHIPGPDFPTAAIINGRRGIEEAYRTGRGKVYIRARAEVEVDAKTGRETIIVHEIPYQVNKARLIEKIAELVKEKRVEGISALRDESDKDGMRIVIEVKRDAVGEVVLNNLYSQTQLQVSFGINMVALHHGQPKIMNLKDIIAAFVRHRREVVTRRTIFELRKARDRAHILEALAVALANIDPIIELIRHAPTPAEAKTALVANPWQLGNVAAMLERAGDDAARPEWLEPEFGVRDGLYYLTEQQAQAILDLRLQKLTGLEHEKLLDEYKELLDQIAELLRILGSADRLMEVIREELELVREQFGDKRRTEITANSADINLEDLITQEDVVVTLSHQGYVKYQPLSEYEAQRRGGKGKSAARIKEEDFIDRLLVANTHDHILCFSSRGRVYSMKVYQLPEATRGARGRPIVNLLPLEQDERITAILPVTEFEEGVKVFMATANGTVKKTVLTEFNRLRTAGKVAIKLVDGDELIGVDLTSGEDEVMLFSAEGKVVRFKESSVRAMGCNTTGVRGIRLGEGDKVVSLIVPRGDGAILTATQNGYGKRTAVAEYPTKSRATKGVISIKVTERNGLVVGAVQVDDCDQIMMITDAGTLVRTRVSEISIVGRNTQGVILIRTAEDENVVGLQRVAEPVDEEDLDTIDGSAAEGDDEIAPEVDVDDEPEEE

[10] = test system: methicillin-resistant Staphylococcus aureus (MRSA); assay: MIC broth microdilution, MRSA; assay type: cell-based; conditions: 20 hours of incubation
Experimental: as §3, §4, §5, §6

Row | SMILES | mean percentage of metabolic activity of treated cells, HUVEC 1 μM (HUVEC (ATCC) cell line) | mean percentage of metabolic activity of treated cells, HUVEC 50 μM (HUVEC (ATCC) cell line) | IC50 [1] | MIC [2] | MIC [3] | mean percentage of metabolic activity of treated cells, HepG2 1 μM (HepG2 (ATCC) cell line) | mean percentage of metabolic activity of treated cells, HepG2 50 μM (HepG2 (ATCC) cell line) | MIC (P. aeruginosa RDK 184) | MIC [4] | MIC (C. jejuni RDK-135) | MIC [5] | MIC [6] | MIC [7] | MIC [8] | MIC (E. faecalis DRK 057) | IC50 [9] | MIC [10]
1 | COc1ccc2nccc(CCN3CCC(NCc4ccc(Br)cc4)CC3)c2n1 [Compound C7, N-(4-bromobenzyl)-1-(2-(6-methoxy-1,5-naphthyridin-4-yl)ethyl)piperidin-4-amine] | 92.0 ± 4.5% | −0.5 ± 0.2% | 7 nM | 0.062 µg/mL (≈ 0.136 µM) | 0.062 µg/mL (≈ 0.136 µM) | 84.3 ± 8.9% | −0.1 ± 0.3% | 128 µg/mL (≈ 281 µM) | ≤ 0.0078 µg/mL | 0.5 µg/mL (≈ 1.1 µM) | 0.062 µg/mL (≈ 0.136 µM) | 0.125 µg/mL (≈ 0.274 µM) | 0.062 µg/mL (≈ 0.136 µM) | 0.031 µg/mL (≈ 0.0681 µM) | 1 µg/mL (≈ 2.2 µM) |  | 
2 | COc1ccc2nccc(CCN3CCC(NCc4ccc(OC(F)F)c(O)c4)CC3)c2n1 [Compound C10, 2-(difluoromethoxy)-5-((1-(2-(6-methoxy-1,5-naphthyridin-4-yl)ethyl)piperidin-4-ylamino)methyl)phenol] | 96.4 ± 9.1% | 2.5 ± 0.3% | 330 nM | 0.25 µg/mL (≈ 0.545 µM) | 0.5 µg/mL (≈ 1.09 µM) | 100.5 ± 4.8% | −0.4 ± 1.6% | > 128 µg/mL | 0.25 µg/mL (≈ 0.545 µM) | 0.016 µg/mL (≈ 0.0349 µM) | 0.25 µg/mL (≈ 0.545 µM) | 2 µg/mL (≈ 4.36 µM) | 0.25 µg/mL (≈ 0.545 µM) | 0.25 µg/mL (≈ 0.545 µM) | 4 µg/mL (≈ 8.72 µM) | 4410 nM | 
3 | COc1ccc2nccc(CCN3CCC(NCc4ccc(CO)cc4)CC3)c2n1 [Compound C2, (4-((1-(2-(6-methoxy-1,5-naphthyridin-4-yl)ethyl)piperidin-4-ylamino)methyl)phenyl)methanol] | 97.7 ± 9.4% | 63.1 ± 2.1% | 4390 nM | 4 µg/mL (≈ 9.84 µM) | 4 µg/mL (≈ 9.84 µM) | 100.2 ± 1.5% | 24.1 ± 0.9% | > 128 µg/mL | 0.25 µg/mL (≈ 0.615 µM) | 32 µg/mL (≈ 78.7 µM) | 4 µg/mL (≈ 9.84 µM) | 8 µg/mL (≈ 19.7 µM) | 4 µg/mL (≈ 9.84 µM) | 4 µg/mL (≈ 9.84 µM) | 8 µg/mL (≈ 19.7 µM) | 56600 nM | 
4 | COc1ccc2nccc(CCN3CCC(NCc4ccc(F)cc4)CC3)c2n1 [Compound C5, N-(4-fluorobenzyl)-1-(2-(6-methoxy-1,5-naphthyridin-4-yl)ethyl)piperidin-4-amine] | 105.2 ± 15.1% | 75.6 ± 12.0% | 550 nM | 2 µg/mL (≈ 5.07 µM) | 2 µg/mL (≈ 5.07 µM) | 98.0 ± 3.9% | −1.3 ± 2.2% | > 128 µg/mL | 0.125 µg/mL (≈ 0.317 µM) | 1 µg/mL (≈ 2.53 µM) | 2 µg/mL (≈ 5.07 µM) | 8 µg/mL (≈ 20.3 µM) | 2 µg/mL (≈ 5.07 µM) | 2 µg/mL (≈ 5.07 µM) | 8 µg/mL (≈ 20.3 µM) | 17000 nM | 
5 | COc1ccc2nccc(CCN3CCC(NCc4ccccc4)CC3)c2n1 [Compound C1, N-benzyl-1-(2-(6-methoxy-1,5-naphthyridin-4-yl)ethyl)piperidin-4-amine] | 92.9 ± 16.6% | 63.4 ± 11.3% | 1020 nM | 4 µg/mL (≈ 10.6 µM) | 4 µg/mL (≈ 10.6 µM) | 107.1 ± 7.2% | 1.4 ± 0.3% | > 128 µg/mL | 0.25 µg/mL (≈ 0.664 µM) | 32 µg/mL (≈ 85 µM) | 4 µg/mL (≈ 10.6 µM) | 16 µg/mL (≈ 42.5 µM) | 4 µg/mL (≈ 10.6 µM) | 4 µg/mL (≈ 10.6 µM) | 16 µg/mL (≈ 42.5 µM) | 40600 nM | 
6 | COc1ccc2nccc(CCN3CCC(NCc4ccc(I)cc4)CC3)c2n1 [Compound C8, N-(4-iodobenzyl)-1-(2-(6-methoxy-1,5-naphthyridin-4-yl)ethyl)piperidin-4-amine] | 108.0 ± 6.6% | −0.3 ± 0.5% | 11 nM | 0.015 µg/mL (≈ 0.0299 µM) | 0.15 µg/mL (≈ 0.299 µM) | 102.6 ± 2.3% | 0.5 ± 0.3% | 32 µg/mL (≈ 63.7 µM) | 0.002 µg/mL (≈ 0.00398 µM) | 0.015 µg/mL (≈ 0.0299 µM) | 0.0078 µg/mL (≈ 0.0155 µM) | 0.062 µg/mL (≈ 0.123 µM) | 0.015 µg/mL (≈ 0.0299 µM) | ≤ 0.0078 µg/mL | 1 µg/mL (≈ 1.99 µM) |  | 0.015 µg/mL (≈ 0.0299 µM)
7 | COc1ccc2nccc(CCN3CCC(NCc4ccc(OC(F)F)c(OC)c4)CC3)c2n1 [Compound C9, N-(4-(difluoromethoxy)-3-methoxybenzyl)-1-(2-(6-methoxy-1,5-naphthyridin-4-yl)ethyl)piperidin-4-amine] | 89.6 ± 3.8% | 0.2 ± 1.0% | 350 nM | 2 µg/mL (≈ 4.23 µM) | 2 µg/mL (≈ 4.23 µM) | 89.7 ± 3.8% | −0.3 ± 2.1% | > 128 µg/mL | 0.125 µg/mL (≈ 0.265 µM) | 2 µg/mL (≈ 4.23 µM) | 2 µg/mL (≈ 4.23 µM) | 4 µg/mL (≈ 8.46 µM) | 2 µg/mL (≈ 4.23 µM) | 2 µg/mL (≈ 4.23 µM) | 16 µg/mL (≈ 33.9 µM) | 3900 nM | 
8 | COc1ccc2nccc(CCN3CCC(NCc4ccc(C(N)=O)cc4)CC3)c2n1 [Compound C3, 4-((1-(2-(6-methoxy-1,5-naphthyridin-4-yl)ethyl)piperidin-4-ylamino)methyl) benzamide] | 105.8 ± 3.5% | 66.1 ± 3.5% | 1820 nM | 4 µg/mL (≈ 9.53 µM) | 4 µg/mL (≈ 9.53 µM) | 94.0 ± 0.8% | 48.3 ± 1.0% | > 128 µg/mL | 0.25 µg/mL (≈ 0.596 µM) | 128 µg/mL (≈ 305 µM) | 4 µg/mL (≈ 9.53 µM) | 8 µg/mL (≈ 19.1 µM) | 4 µg/mL (≈ 9.53 µM) | 4 µg/mL (≈ 9.53 µM) | 128 µg/mL (≈ 305 µM) | > 100000 nM | 
